Patent US11661400B2, “NADPH oxidase inhibitors, pharmaceutical composition comprising the same, and application thereof” (TAIWANJ PHARMACEUTICALS CO., LTD., priority 2018, dated 2023)

Experiments:
NOX1 = molecular target: T1, NOX1 (Homo sapiens, UniProt Q9Y5S8); experiment: NOX1 HT29 cell-based assay (luminol/HRP luminescence); conditions: HT29 cells, DMSO = 0%, GKT137831 = 100%; for inhibition at 0.1 µM / inhibition at 1 µM: HT-29
T1 construct: endogenous in cells; host or cells: HT29
T1 sequence (Q9Y5S8 1-564): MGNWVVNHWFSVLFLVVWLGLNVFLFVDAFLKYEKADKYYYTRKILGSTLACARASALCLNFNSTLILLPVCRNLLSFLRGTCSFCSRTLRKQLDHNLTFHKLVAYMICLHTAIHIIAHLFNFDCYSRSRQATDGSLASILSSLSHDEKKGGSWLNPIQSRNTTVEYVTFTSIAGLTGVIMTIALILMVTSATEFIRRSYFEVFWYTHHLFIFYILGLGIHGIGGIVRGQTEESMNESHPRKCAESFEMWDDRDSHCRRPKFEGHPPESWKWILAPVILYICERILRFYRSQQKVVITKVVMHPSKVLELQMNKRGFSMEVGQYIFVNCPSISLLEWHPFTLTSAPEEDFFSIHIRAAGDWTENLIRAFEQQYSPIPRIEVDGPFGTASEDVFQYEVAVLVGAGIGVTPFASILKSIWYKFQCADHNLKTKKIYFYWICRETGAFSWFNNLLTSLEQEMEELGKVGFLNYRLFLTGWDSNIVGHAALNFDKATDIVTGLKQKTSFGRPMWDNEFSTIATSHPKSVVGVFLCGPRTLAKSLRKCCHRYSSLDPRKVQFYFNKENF
T1 sequence (P13498 2-195 partner limits assumed): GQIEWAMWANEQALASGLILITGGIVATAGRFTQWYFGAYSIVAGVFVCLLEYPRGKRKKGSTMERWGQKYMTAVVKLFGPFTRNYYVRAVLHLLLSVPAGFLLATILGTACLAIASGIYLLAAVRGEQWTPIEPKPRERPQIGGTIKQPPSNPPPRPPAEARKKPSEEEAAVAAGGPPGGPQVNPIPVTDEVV
Method: NOX1 HT29 Cell-Based Assay:
HT29 cells were cultured in T75 flask (Corning) and when 70-80% confluence was reached, cells were trypsinized, harvested in HBSS and counted. 1-2×10^5 cells were dispensed into individual wells in 70 μl final volume (96-well plates, white Corning). Cells were treated for 30-60 mins at 37° C. with 10 μl of GKT137831, DMSO and test compounds from their respective assay plates. This will correspond to a final concentration of 100 nM, 1000 nM GKT137831 or test compounds, and 0.1% DMSO. 20 μL of a mixture containing 100 μM luminol plus 0.4 units of HRP (final concentration) was added. Luminescence was quantified using a SpectraMax i3 Multiplate reader (Molecular Devices, Sunnyvale, Calif., USA). As designed, compounds that inhibit NOX1 activity will reduce cellular ROS production, leading to reduced probe-ROS interactions and reduced well luminescence. Compounds were tested in duplicate at a concentration of 100 nM and 1000 nM. DMSO and GKT137831 wells were applied as negative and positive controls, and the activities measured were set to 0% and 100%, respectively.

NOX4 = molecular target: T2, NOX4 (Homo sapiens, UniProt Q9NPH5); experiment: NOX4 HEK293 overexpression cell-based assay (Amplex Red H2O2); conditions: HEK293 cells stably overexpressing NOX4, DMSO = 0, GKT137831 = 100; for inhibition at 1 µM: HEK293, 1000 nM; for inhibition at 0.1 µM: HEK293, 100 nM
T2 construct: expressed in transfected cells
T2 sequence (Q9NPH5 1-578): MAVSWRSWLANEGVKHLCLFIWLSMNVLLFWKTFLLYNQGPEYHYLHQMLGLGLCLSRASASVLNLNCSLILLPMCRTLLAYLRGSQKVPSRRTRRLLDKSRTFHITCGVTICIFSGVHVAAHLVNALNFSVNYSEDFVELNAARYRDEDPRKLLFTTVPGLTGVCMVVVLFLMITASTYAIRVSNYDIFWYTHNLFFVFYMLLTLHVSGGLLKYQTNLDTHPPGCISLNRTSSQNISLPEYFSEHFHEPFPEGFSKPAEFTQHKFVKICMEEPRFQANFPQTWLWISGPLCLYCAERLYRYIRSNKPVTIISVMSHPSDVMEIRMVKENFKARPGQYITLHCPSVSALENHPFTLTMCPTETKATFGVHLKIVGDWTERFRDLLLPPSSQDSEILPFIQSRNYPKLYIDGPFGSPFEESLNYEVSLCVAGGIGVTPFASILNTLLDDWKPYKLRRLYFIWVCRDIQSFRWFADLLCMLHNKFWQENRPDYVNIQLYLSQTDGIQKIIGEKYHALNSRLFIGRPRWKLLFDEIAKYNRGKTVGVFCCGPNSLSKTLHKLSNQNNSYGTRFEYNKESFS
T2 sequence (P13498 2-195 partner limits assumed): T1 sequence (P13498 2-195 partner limits assumed)
Method: Extracellular H2O2 measurement using Amplex™ Red Hydrogen Peroxide/Peroxidase Assay Kit (Catalog number: A22188; Invitrogen, Carlsbad, Calif., USA) was used to detect extracellular H2O2 release by HEK293 cells stably overexpressing NOX4. NOX4 clonal cells in log-phase growth were trypsinized, washed, and dispersed thoroughly. Following trypsinization, the cells (3×10^4) were resuspended in 100 μL of 1× Krebs-Ringer phosphate glucose (KRPG) buffer containing various concentrations of GKT137831 or test compounds and incubated at 37° C. for 30 min. Cells were mixed with 100 μL of Amplex Red reagent solution containing 50 μM Amplex Red and 0.1 units/mL of HRP in KRPG buffer; each assay condition was evaluated induplicate. The samples were incubated at 37° C. for 90 mins in the dark, and then centrifuged at 2,500 g for 5 mins. The supernatants were loaded to a 96 well plate, and then measured using a SpectraMax i3 Multiplate reader (Molecular Devices, Sunnyvale, Calif., USA) at 530 nm excitation and 590 nm emission respectively. DMSO and GKT137831 wells were applied as negative and positive controls, and the activities measured were set to 0 and 100, respectively.

NOX2 = molecular target: T3, NOX2 (Homo sapiens, UniProt P04839); experiment: NOX2 HL60 cell-based assay (PMA oxidative burst, L012 chemiluminescence); conditions: DMSO-differentiated HL-60 cells, PMA-stimulated; for inhibition at 0.1 µM: HL-60, 100 nM; for inhibition at 1 µM: HL-60, 1000 nM
T3 construct: HL-60 cells, rich in NOX2 expression; endogenous in cells; host or cells: DMSO-differentiated HL-60
T3 sequence (P04839 2-570 limits assumed): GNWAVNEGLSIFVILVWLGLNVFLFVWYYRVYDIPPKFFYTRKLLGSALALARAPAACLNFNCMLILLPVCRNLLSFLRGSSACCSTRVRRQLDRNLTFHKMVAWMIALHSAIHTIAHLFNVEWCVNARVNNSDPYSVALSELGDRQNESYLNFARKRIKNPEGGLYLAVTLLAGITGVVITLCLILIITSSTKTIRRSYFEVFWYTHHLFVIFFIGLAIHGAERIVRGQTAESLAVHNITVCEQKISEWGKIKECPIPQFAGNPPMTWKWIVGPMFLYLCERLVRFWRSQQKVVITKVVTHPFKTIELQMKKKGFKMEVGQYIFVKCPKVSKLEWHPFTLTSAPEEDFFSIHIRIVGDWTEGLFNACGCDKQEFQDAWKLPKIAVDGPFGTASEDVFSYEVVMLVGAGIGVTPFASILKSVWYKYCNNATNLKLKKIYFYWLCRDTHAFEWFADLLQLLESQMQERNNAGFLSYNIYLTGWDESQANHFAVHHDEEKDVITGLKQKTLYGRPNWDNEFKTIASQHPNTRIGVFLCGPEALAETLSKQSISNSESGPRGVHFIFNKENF
T3 sequence (P13498 2-195 partner limits assumed): T1 sequence (P13498 2-195 partner limits assumed)
Method: NOX2 HL60 Cell-Based Assay:
HL-60 cells, rich in NOX2 expression, was stimulated to undergo oxidative burst by phorbol myristate acetate (PMA). The ROS produced during this process was measured using the O2^−-specific chemiluminescent probe L012. L012 was added to DMSO-differentiated HL-60 cell suspensions to a final concentration of 100 μM. Then, 80 μL aliquots of cell suspension (2.5×10^5 cells) were transferred to individual wells of a 96-well plate. Test compounds were directly added to the wells at the specified concentrations. Following a 30-60 mins incubation at 37° C. in the dark, the oxidative burst was initiated by the addition of 10 ng/mL PMA, and the chemiluminescence signal was recorded every 5 min over a period of 60 mins in a SpectraMax i3 Multiplate reader (Molecular Devices, Sunnyvale, Calif., USA). • NOX4 HEK293 Overexpression Cell-Based Assay: […]

| Structure (SMILES) | inhibition at 0.1 µM (NOX1; 100 nM) [%] | inhibition at 1 µM (NOX1; 1000 nM) [%] | inhibition at 1 µM (NOX4) [%] | inhibition at 0.1 µM (NOX2) [%] | inhibition at 1 µM (NOX2) [%] | inhibition at 0.1 µM (NOX4) [%] | % Inhibition NOX4 (NOX4; 100 nM) | also measured |
| --- | --- | --- | --- | --- | --- | --- | --- | --- |
| Br.O=c1c(O)c(-c2ccc(O)cc2)[nH]c2cc(O)c(O)cc12 [Compound 3, 3,6,7-trihydroxy-2-(4-hydroxyphenyl) quinolin-4(1H)-one hydrobromide] | – | ≥ 80 | 50 to 79 | – | ≥ 80 | ≤ 19 | – | % Inhibition NOX1 (NOX1; 100 nM): C (the percent of inhibition of NOX by the compounds ranges from 2000 to 49%); % Inhibition NOX2 (NOX2; 100 nM): C (the percent of inhibition of NOX by the compounds ranges from 2000 to 49%) |
| COc1cc2[nH]c(-c3cccs3)c(O)c(=O)c2cc1OC [Compound 7] | ≥ 80 | ≥ 80 | ≥ 80 | ≤ 19 | 50 to 79 | 50 to 79 | – | – |
| COc1cc2[nH]c(-c3ccccc3Cl)c(O)c(=O)c2cc1OC [Compound 9] | ≥ 80 | ≥ 80 | – | ≤ 19 | ≥ 80 | 50 to 79 | – | % Inhibition NOX4 (NOX4; 1000 nM, 1 µM): A (the percent of inhibition of NOX by the compounds is larger than or equals to 80%) |
| COc1cc2[nH]c(-c3ccccc3C(F)(F)F)c(O)c(=O)c2cc1OC [Compound 44, 3-hydroxy-6,7-dimethoxy-2-(2-(trifluoromethyl)phenyl)quinolin-4(1H)-one methanesulfonate] | – | – | – | – | – | – | – | % Inhibition NOX2 (NOX2; 100 nM, methanesulfonate, 0.1 µM): C (the percent of inhibition of NOX by the compounds ranges from 2000 to 49%); % Inhibition NOX2 (NOX2; 1000 nM, methanesulfonate, 1 µM): A (the percent of inhibition of NOX by the compounds is larger than or equals to 80%) |

Continued, in another order:

| inhibition at 0.1 µM (NOX1; 100 nM) [%] | inhibition at 1 µM (NOX1; 1000 nM) [%] | inhibition at 1 µM (NOX4) [%] | inhibition at 0.1 µM (NOX2) [%] | inhibition at 1 µM (NOX2) [%] | inhibition at 0.1 µM (NOX4) [%] | Structure (SMILES) | % Inhibition NOX4 (NOX4; 100 nM) | also measured |
| --- | --- | --- | --- | --- | --- | --- | --- | --- |
| ≥ 80 | ≥ 80 | ≥ 80 | ≤ 19 | 50 to 79 | – | COc1ccc(-c2[nH]c3cc(OC)c(OC)cc3c(=O)c2O)cc1 [Compound 2, 3-hydroxy-6,7-dimethoxy-2-(4-methoxyphenyl) quinolin-4(1H)-one 2,2,2-trifluoroacetate] | C (the percent of inhibition of NOX by the compounds ranges from 2000 to 49%) | – |
| 50 to 79 | ≥ 80 | ≥ 80 | ≤ 19 | 50 to 79 | ≤ 19 | COc1cccc(-c2[nH]c3cc(OC)c(OC)cc3c(=O)c2O)c1 [Compound 4] | – | – |
| – | – | – | ≤ 19 | – | – | COc1cc2[nH]c(-c3ccccc3OC)c(O)c(=O)c2cc1OC [Compound 5] | C (the percent of inhibition of NOX by the compounds ranges from 2000 to 49%) | % Inhibition NOX1 (NOX1; 100 nM): A (the percent of inhibition of NOX by the compounds is larger than or equals to 80%); % Inhibition NOX1 (NOX1; 1000 nM): A (the percent of inhibition of NOX by the compounds is larger than or equals to 80%); % Inhibition NOX4 (NOX4; 1000 nM): A (the percent of inhibition of NOX by the compounds is larger than or equals to 80%); % Inhibition NOX2 (NOX2; 1000 nM): A (the percent of inhibition of NOX by the compounds is larger than or equals to 80%) |
| ≥ 80 | ≥ 80 | 50 to 79 | ≤ 19 | ≤ 19 | – | COc1cc2[nH]c(-c3ccc(C)cc3)c(O)c(=O)c2cc1OC [Compound 6] | C (the percent of inhibition of NOX by the compounds ranges from 2000 to 49%) | – |
| – | ≥ 80 | 50 to 79 | ≤ 19 | ≤ 19 | ≤ 19 | COc1cc2[nH]c(-c3ccc(Cl)cc3)c(O)c(=O)c2cc1OC [Compound 8] | – | % Inhibition NOX1 (NOX1; 100 nM, 0.1 µM): C (the percent of inhibition of NOX by the compounds ranges from 2000 to 49%) |
